From US8952024B2, “Herbicidal pyrimidone derivatives” (E I du Pont de Nemours and Company, priority 2009, dated 2015)

Experiments:
Format in all cases: in vivo
[1] = test system: chickweed (Stellaria media); assay: Test B postemergence plant response; settings: Postemergence
Outline: (§1)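 Visual ratings from 0 (no effect) to 100 (complete control), made against controls 13–15 days after treatment, kept in a greenhouse. Compounds were applied postemergence to potted plants at the 1- to 4-leaf stage (2–18 cm).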

[2] = test system: windgrass (Apera spica-venti); assay: Test B postemergence plant response; settings: Postemergence
Outline: as §1

[3] = test system: winter barley (Hordeum vulgare); assay: Test B postemergence plant response; settings: Postemergence
Outline: as §1

[4] = test system: canarygrass (Phalaris minor); assay: Test B postemergence plant response; settings: Postemergence
Outline: as §1

[5] = test system: velvetleaf (Abutilon theophrasti); assay: Test A pre-/postemergence plant response; settings: for Velvetleaf plant response rating: visual injury, 0 to 100 scale (0 no effect, 100 complete control), approx. ten days
Outline: (§2)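 Plants grown from seed in a loam soil and sand mix received test compounds both as a preemergence soil spray and, at the same time, as a postemergence spray at the one- to two-leaf stage. Injury was judged visually against untreated controls roughly ten days later, 0 meaning no effect and 100 complete control.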

corn (Zea mays) = assay: Test A pre-/postemergence plant response; settings: for Corn plant response rating: visual injury, 0 to 100 scale (0 no effect, 100 complete control), approx. ten days
Outline: as §2

[6] = test system: wheat (Triticum aestivum); assay: Test A pre-/postemergence plant response; settings: for Wheat plant response rating: visual injury, 0 to 100 scale (0 no effect, 100 complete control), approx. ten days
Outline: as §2

[7] = test system: large crabgrass (Digitaria sanguinalis); assay: Test A pre-/postemergence plant response; settings: for Crabgrass, Large plant response rating: visual injury, 0 to 100 scale (0 no effect, 100 complete control), approx. ten days
Outline: as §2

[8] = test system: barnyardgrass (Echinochloa crus-galli); assay: Test A pre-/postemergence plant response; settings: for Barnyardgrass plant response rating: visual injury, 0 to 100 scale (0 no effect, 100 complete control), approx. ten days
Outline: as §2

[9] = test system: morningglory (Ipomoea spp.); assay: Test A pre-/postemergence plant response; settings: for Morningglory plant response rating: visual injury, 0 to 100 scale (0 no effect, 100 complete control), approx. ten days
Outline: as §2

[10] = test system: giant foxtail (Setaria faberii); assay: Test A pre-/postemergence plant response; settings: for Foxtail, Giant plant response rating: visual injury, 0 to 100 scale (0 no effect, 100 complete control), approx. ten days
Outline: as §2

[11] = test system: pigweed (Amaranthus retroflexus); assay: Test A pre-/postemergence plant response; settings: for Pigweed plant response rating: visual injury, 0 to 100 scale (0 no effect, 100 complete control), approx. ten days
Outline: as §2

[12] = 31 g ai/ha, 0 to 100 scale (0 no effect, 100 complete control)
[13] = 62 g ai/ha, scale 0 to 100 (0 no effect, 100 complete control)
[14] = 125 g ai/ha, scale 0 to 100 (0 no effect, 100 complete control)
[15] = 250 g ai/ha, scale 0 to 100 (0 no effect, 100 complete control), 13 to 15 days
[16] = Postemergence, 125 g ai/ha, 0 to 100 scale where 0 is no effect and 100 is complete control
[17] = Preemergence, 125 g ai/ha, 0 to 100 scale, 0 = no effect, 100 = complete control
[18] = Preemergence, 500 g ai/ha, 0 to 100 scale, 0 = no effect, 100 = complete control

COCCn1c(-c2ccsc2)ncc(C(=O)C2=C(O)C3CCC(C3)C2=O)c1=O (stereo not drawn) [Compound 228]
Plant response rating, Chickweed [1, 12]: 98
Plant response rating, Chickweed [1, 13]: 100
Plant response rating, Chickweed [1, 14]: 100
Plant response rating, Chickweed [1, 15]: 100
Plant response rating, Windgrass [2, 12]: 5
Plant response rating, Windgrass [2, 13]: 50
Plant response rating, Windgrass [2, 15]: 90
Plant response rating, Barley [3, 12]: 0
Plant response rating, Barley [3, 13]: 5
Plant response rating, Barley [3, 14]: 40
Plant response rating, Barley [3, 15]: 40
Plant response rating, Canarygrass [4, 12]: 0
Plant response rating, Canarygrass [4, 13]: 0
Plant response rating, Canarygrass [4, 14]: 5
Plant response rating, Canarygrass [4, 15]: 10
Plant response rating, Velvetleaf [5, 16]: 100
Velvetleaf plant response rating ([5]; Postemergence, 500 g ai/ha): 100
Plant response rating, Velvetleaf [5, 17]: 100
Plant response rating, Velvetleaf [5, 18]: 100
Plant response rating, Corn (corn (Zea mays); [16]): 50
Corn plant response rating (corn (Zea mays); Postemergence, 500 g ai/ha): 90
Plant response rating, Corn (corn (Zea mays); [17]): 0
Plant response rating, Corn (corn (Zea mays); [18]): 50
Plant response rating, Wheat [6, 16]: 0
Wheat plant response rating ([6]; Postemergence, 500 g ai/ha): 20
Plant response rating, Wheat [6, 17]: 0
Plant response rating, Wheat [6, 18]: 0
Plant response rating, Crabgrass, Large [7, 16]: 90
Crabgrass, Large plant response rating ([7]; Postemergence, 500 g ai/ha): 100
Plant response rating, Crabgrass, Large [7, 17]: 100
Plant response rating, Crabgrass, Large [7, 18]: 100
Plant response rating, Barnyardgrass [8, 16]: 90
Barnyardgrass plant response rating ([8]; Postemergence, 500 g ai/ha): 90
Plant response rating, Barnyardgrass [8, 17]: 40
Plant response rating, Barnyardgrass [8, 18]: 100
Plant response rating, Morningglory [9, 16]: 100
Morningglory plant response rating ([9]; Postemergence, 500 g ai/ha): 100
Plant response rating, Morningglory [9, 17]: 70
Plant response rating, Morningglory [9, 18]: 80
Plant response rating, Foxtail, Giant [10, 16]: 90
Foxtail, Giant plant response rating ([10]; Postemergence, 500 g ai/ha): 90
Plant response rating, Foxtail, Giant [10, 17]: 50
Plant response rating, Foxtail, Giant [10, 18]: 90
Plant response rating, Pigweed [11, 16]: 100
Pigweed plant response rating ([11]; Postemergence, 500 g ai/ha): 100
Plant response rating, Pigweed [11, 17]: 100
Plant response rating, Pigweed [11, 18]: 100

O=C(C1=C(O)C2CCC(C2)C1=O)c1cnc(-c2ccsc2)n(CC2CCCO2)c1=O (stereo not drawn) [Compound 229]
Plant response rating, Chickweed [1, 12]: 70
Plant response rating, Chickweed [1, 13]: 85
Plant response rating, Chickweed [1, 14]: 90
Plant response rating, Chickweed [1, 15]: 98
Plant response rating, Windgrass [2, 12]: 0
Plant response rating, Windgrass [2, 13]: 40
Plant response rating, Windgrass [2, 15]: 65
Plant response rating, Barley [3, 12]: 0
Plant response rating, Barley [3, 13]: 0
Plant response rating, Barley [3, 14]: 5
Plant response rating, Barley [3, 15]: 25
Plant response rating, Canarygrass [4, 12]: 5
Plant response rating, Canarygrass [4, 13]: 15
Plant response rating, Canarygrass [4, 14]: 50
Plant response rating, Canarygrass [4, 15]: 60
Plant response rating, Velvetleaf [5, 16]: 100
Velvetleaf plant response rating ([5]; Postemergence, 500 g ai/ha): 100
Plant response rating, Velvetleaf [5, 17]: 100
Plant response rating, Velvetleaf [5, 18]: 100
Plant response rating, Corn (corn (Zea mays); [16]): 0
Corn plant response rating (corn (Zea mays); Postemergence, 500 g ai/ha): 40
Plant response rating, Corn (corn (Zea mays); [17]): 0
Plant response rating, Corn (corn (Zea mays); [18]): 0
Plant response rating, Wheat [6, 16]: 0
Wheat plant response rating ([6]; Postemergence, 500 g ai/ha): 20
Plant response rating, Wheat [6, 17]: 0
Plant response rating, Wheat [6, 18]: 0
Plant response rating, Crabgrass, Large [7, 16]: 80
Crabgrass, Large plant response rating ([7]; Postemergence, 500 g ai/ha): 100
Plant response rating, Crabgrass, Large [7, 17]: 80
Plant response rating, Crabgrass, Large [7, 18]: 100
Plant response rating, Barnyardgrass [8, 16]: 90
Barnyardgrass plant response rating ([8]; Postemergence, 500 g ai/ha): 100
Plant response rating, Barnyardgrass [8, 17]: 0
Plant response rating, Barnyardgrass [8, 18]: 70
Plant response rating, Morningglory [9, 16]: 100
Morningglory plant response rating ([9]; Postemergence, 500 g ai/ha): 100
Plant response rating, Morningglory [9, 17]: 40
Plant response rating, Morningglory [9, 18]: 80
Plant response rating, Foxtail, Giant [10, 16]: 90
Foxtail, Giant plant response rating ([10]; Postemergence, 500 g ai/ha): 100
Plant response rating, Foxtail, Giant [10, 17]: 50
Plant response rating, Foxtail, Giant [10, 18]: 60
Plant response rating, Pigweed [11, 16]: 100
Pigweed plant response rating ([11]; Postemergence, 500 g ai/ha): 100
Plant response rating, Pigweed [11, 17]: 90
Plant response rating, Pigweed [11, 18]: 100

COCCn1c(-c2cccc(C)c2)ncc(C(=O)C2=C(O)C3CCC(C3)C2=O)c1=O (stereo not drawn) [Compound 233]
Plant response rating, Chickweed [1, 12]: 90
Plant response rating, Chickweed [1, 13]: 95
Plant response rating, Chickweed [1, 14]: 100
Plant response rating, Chickweed [1, 15]: 100
Plant response rating, Windgrass [2, 12]: 50
Plant response rating, Windgrass [2, 13]: 55
Plant response rating, Windgrass [2, 15]: 60
Plant response rating, Barley [3, 12]: 0
Plant response rating, Barley [3, 13]: 0
Plant response rating, Barley [3, 14]: 10
Plant response rating, Barley [3, 15]: 10
Plant response rating, Canarygrass [4, 12]: 0
Plant response rating, Canarygrass [4, 13]: 5
Plant response rating, Canarygrass [4, 14]: 10
Plant response rating, Canarygrass [4, 15]: 20
Plant response rating, Velvetleaf [5, 16]: 100
Velvetleaf plant response rating ([5]; Postemergence, 500 g ai/ha): 100
Plant response rating, Velvetleaf [5, 17]: 60
Plant response rating, Velvetleaf [5, 18]: 80
Plant response rating, Corn (corn (Zea mays); [16]): 60
Corn plant response rating (corn (Zea mays); Postemergence, 500 g ai/ha): 80
Plant response rating, Corn (corn (Zea mays); [17]): 0
Plant response rating, Corn (corn (Zea mays); [18]): 0
Plant response rating, Wheat [6, 16]: 20
Wheat plant response rating ([6]; Postemergence, 500 g ai/ha): 60
Plant response rating, Wheat [6, 17]: 0
Plant response rating, Wheat [6, 18]: 40
Plant response rating, Crabgrass, Large [7, 16]: 90
Crabgrass, Large plant response rating ([7]; Postemergence, 500 g ai/ha): 90
Plant response rating, Crabgrass, Large [7, 17]: 40
Plant response rating, Crabgrass, Large [7, 18]: 100
Plant response rating, Barnyardgrass [8, 16]: 90
Barnyardgrass plant response rating ([8]; Postemergence, 500 g ai/ha): 90
Plant response rating, Barnyardgrass [8, 17]: 30
Plant response rating, Barnyardgrass [8, 18]: 100
Plant response rating, Morningglory [9, 16]: 100
Morningglory plant response rating ([9]; Postemergence, 500 g ai/ha): 100
Plant response rating, Morningglory [9, 17]: 50
Plant response rating, Morningglory [9, 18]: 90
Plant response rating, Foxtail, Giant [10, 16]: 90
Foxtail, Giant plant response rating ([10]; Postemergence, 500 g ai/ha): 90
Plant response rating, Foxtail, Giant [10, 17]: 20
Plant response rating, Foxtail, Giant [10, 18]: 80
Plant response rating, Pigweed [11, 16]: 100
Pigweed plant response rating ([11]; Postemergence, 500 g ai/ha): 100
Plant response rating, Pigweed [11, 17]: 70
Plant response rating, Pigweed [11, 18]: 100
